Test results taken from article PMC8230474, “Synthesis of Novel Acyl Derivatives of 3-(4,5,6,7-Tetrabromo-1H-benzimidazol-1-yl)propan-1-ols—Intracellular TBBi-Based CK2 Inhibitors with Proapoptotic Properties” (International Journal of Molecular Sciences, 2021).
Like-named read-outs stand apart in the source and are kept apart here.

Columns and labels:
[1] = biological target: human CK2 catalytic subunit (CK2α) (Homo sapiens, UniProt P68400); experiment: Radiometric (P81 filter isotopic) kinase assay, CK2 catalytic subunit; type: biochemical; details: read-out: Residual Activity of the Enzyme CK2α
[2] = biological target: CK2 holoenzyme (CK2 α2β2) (Homo sapiens, UniProt P68400); experiment: Radiometric (P81 filter isotopic) kinase assay, CK2 holoenzyme; type: biochemical; details: read-out: Residual Activity of the Enzyme CK2 α2β2
PIM1 = PIM1 (Homo sapiens, UniProt P11309); experiment: Radiometric (P81 filter isotopic) kinase assay, PIM1; type: biochemical; details: for remaining activity at 5 µM / remaining activity at 10 µM: read-out: Residual Activity of the Enzyme PIM1; for Ki: calculated from IC50 by Cheng and Prusoff equation
MCF-7 cells [3] = experiment: MTT viability assay, MCF-7; type: cell-based; details: Homo sapiens, read-out: EC50 ± SD MCF-7
Description: (§1) To test the anti-cancer effect of the TBBi derivatives, we treated the MCF-7 and MDA-MB-231 cells with the newly synthesized esters and previously reported compounds [34, 57] at the concentration range of 3.125 to 200 µM for 24 h, 48 h and 72 h. Additionally, the range of concentrations was extended by additional lower concentrations in MCF-7 for compound 4 with the minimum concentration of 0.195 µM. […] The EC50 values, describing the half maximal effective concentration of each tested compound, were calculated and are summarized in Table 2. […] We observed that the EC50 values increase in both cell lines with the elongation of fatty acids chain length in the tested compounds, thus strongly correlating with the decrease of their solubility in biological media as characterized by logS parameter (Table 2). The second reason for the decreased biological activity of the longer-chain aliphatic esters might be attributed to their greater resistance toward intracellular hydrolysis, which directly influences the slower release of the active form of the corresponding CK2 inhibitors. […] However, none of the tested compounds, except for compound 5, decreased the viability of both cell lines in a time-dependent manner (Figure 4).
(§2) MCF-7 and MDA-MB-231 were cultured in high-glucose Dulbecco’s modified Eagle medium (DMEM, Lonza, Basel, Switzerland) supplemented with 10% fetal bovine serum (FBS, EuroClone, Siziano, Italy)), 2 mM L-glutamine, and antibiotics (100 U/mL penicillin, 100 µg/mL streptomycin) (Sigma-Aldrich Chemical Company (St. Louis, MO, USA). Cells were grown in 75-cm^2 cell culture flasks (Sarstedt, Nümbrecht, Germany) in a humidified atmosphere of CO2/air (5%/95%) at 37 °C. All the experiments were performed in exponentially growing cultures. Stock solutions of the test compounds were prepared in DMSO and stored in −80 °C for a maximum of one month. For the cytotoxicity studies, stock solutions of the tested compounds were diluted 200-fold with the proper culture medium to obtain the final concentrations.
(§3) After incubation with the tested compounds, an MTT test was performed as described previously. Optical densities were measured at 570 nm using BioTek microplate reader (Winooski, VT, USA). All measurements were carried out in a minimum of three biological replicates.

MDA-MB-231 cells [4] = experiment: MTT viability assay, MDA-MB-231; type: cell-based; details: Homo sapiens, read-out: EC50 ± SD MDA-MB-231
Description: as §1, §2, §3

[5] = system: protein kinase CK2 in MCF-7 cells; experiment: Intracellular inhibition of CK2, Western blot of p-Ser529 p65 and p-Ser129 Akt1, MCF-7; type: cell-based, human
Text: (§4) We observed an inhibition of CK2 in both cell lines; however, the lower efficiency of CK2 inhibition was detected in MCF-7 considering the extent of Akt1 phosphorylation. The relative level of the phosphorylation of the tested proteins in MDA-MB-231 cells was in the range of 0.32 to 0.80 for p-Ser529 p65 and 0.41 to 0.73 for p-Ser129 Akt1, whereas in MCF-7 cells it was in the range of 0.33 to 0.78 for p-Ser529 p65 and 0.82 to 1.23 for p-Ser129 Akt1, respectively. The lowest phosphorylation levels of the tested proteins were detected in MDA-MB-231 cells for compound 6b with the relative level of 0.41 for Ser129 Akt1 as well as for compound 6c with the relative level of 0.32 for p-Ser529 p65. Among the tested proteins, the lowest extent of phosphorylation in MCF-7 cells was detected for 6b with the relative level of 0.33 for p-Ser529 p65, and for 6a with the relative level of 0.82 for Ser129 Akt1.
Considering an inefficient inhibition of CK2 in MCF-7, we evaluated an inhibition of CK2 in this cell line after 72 h. […] The relative levels were in the range of 0.17 to 0.8 for p-Ser529 p65 and 0.19 to 0.79 for p-Ser129 Akt1.
The MCF-7 cells growing exponentially were seeded at 4.8 × 10^5 cells in 6-cm-diameter plates. Subsequently, compounds were added in a final concentration of 0.5% DMSO. After incubation, floating cells were collected and cell monolayer was washed three times in ice-cold PBS and the cells were scraped, combined with floating cells and lysed in RIPA buffer consisting of 50 mM Tris-HCl (pH 7.4), 1% NP-40, 0.5% sodium deoxycholate, 0.1% SDS, 150 mM NaCl, 2 mM EDTA, 50 mM NaF, 0.2 mM sodium orthovanadate, and protease inhibitors cocktail. Subsequently, cells were sonicated (three times for 15 s), centrifuged at 20,000× g for 15 min at 4 °C, and the supernatants were collected and stored at −80 °C. The protein concentration was determined using Bradford assay. Then, supernatants were incubated with the Laemmli buffer for 5 min at 98 °C. Equal amounts of total protein (10 to 20 μg) were analyzed by SDS-PAGE, and subsequently, Western blotting was performed using primary antibodies in blocking buffer containing either 3% BSA (bovine serum albumin) or 3% milk in TBS-T (Tris-buffered saline (10 mM Tris-HCl (pH 8), 150 mM NaCl) containing 0.1% Tween 20 or 0.2% Triton X-100) for 1 h. After overnight incubation at 4 °C with the primary antibodies, the membranes were washed with TBS-T and probed with the respective secondary antibodies. The ECL substrate was used for detection and immunoblots were scanned using G Box Chemi (Syngene, Cambridge, UK) with GeneSys software (Syngene, Cambridge, UK) or were developed with the use of X-rays films. UV-irradiated Jurkat cells were used as a positive control in Western blot analysis of c-PARP1. After 2 h, one-minute UV-irradiated Jurkat leukemic T-cell line was lysed and subjected to analysis.
For densitometry, immunoblots were quantified using the Fiji distribution of the ImageJ 1.52a software (National Institutes of Health, Bethesda, MD, USA, and the University of Wisconsin, Madison, WI, USA). Phosphorylated protein densities were normalized to GAPDH densities, assuming 1 for untreated cells and then they were converted to a percent of the appropriate control.

MCF-7 cells [6] = experiment: Cell cycle progression by flow cytometry, MCF-7; type: cell-based, human; details: MCF-7, 72 h, compound at its EC50
MCF-7 cells [7] = experiment: Annexin V-FITC/PI flow cytometry, MCF-7; type: cell-based, human; details: MCF-7, 72 h treatment, compound at its EC50
Description: Additionally, assaying annexin V-binding to phosphatidylserine by means of flow cytometry confirmed that derivatives 3c and 6a–c induced apoptosis in both cell lines (Figure 9, Figure S3).
MCF-7 cells were seeded in six-well plates at 1.5 × 10^5 cells/well. […] Then, the plates were incubated for 24 h or 72 h. After exposure to the examined compounds, the floating cells were collected, and monolayer cell culture was trypsinized. The cells were centrifugated at 200× g at 4 °C for 5 min, washed twice in cold phosphate-buffered saline (PBS), and subsequently suspended in binding buffer at 1 × 10^6 cells/mL. Subsequently, 100-μL aliquots of the cell suspension were labeled according to the kit manufacturer’s instructions. Briefly, annexin V-fluorescein isothiocyanate and propidium iodide (BD Biosciences, Pharmingen, San Diego, CA, USA) were added to the cell suspension, and the mixture was vortexed and then incubated for 15 min at RT in the dark. A cold binding buffer (900 μL) was then added and the cells were vortexed again and kept on ice. Flow cytometric measurements were performed within 1 h after labeling. Viable, necrotic, early, and late apoptotic cells were detected by flow cytometry using CyFlow Cube 8 (Sysmex, Norderstedt, Germany) flow cytometer.

[8] = design: method as in PMID 8876860, PMID 9760686; details: higher than the parent anti-herpesvirus agent; cited from earlier work
[9] = system: protein kinase CK2 in MDA-MB-231 cells; experiment: Intracellular inhibition of CK2, Western blot of p-Ser529 p65 and p-Ser129 Akt1, MDA-MB-231; type: cell-based, human; details: MDA-MB-231, 24 h treatment, compound at its 72-h EC50, relative to untreated control
Text: as §4
The MCF-7 cells growing exponentially were seeded at 4.8 × 10^5 cells in 6-cm-diameter plates. Subsequently, compounds were added in a final concentration of 0.5% DMSO. […] The protein concentration was determined using Bradford assay. […]
For densitometry, immunoblots were quantified using the Fiji distribution of the ImageJ 1.52a software (National Institutes of Health, Bethesda, MD, USA, and the University of Wisconsin, Madison, WI, USA). […]

MDA-MB-231 cells [10] = experiment: Cleaved PARP1 Western blot, MDA-MB-231; type: cell-based, human; details: MDA-MB-231, 24-h treatment, compound at its EC50, untreated cells = one relative unit
[11] = MCF-7, 72 h treatment, compound at its EC50, relative to untreated control

Sequence of PIM1 (P11309 whole entry, species assumed): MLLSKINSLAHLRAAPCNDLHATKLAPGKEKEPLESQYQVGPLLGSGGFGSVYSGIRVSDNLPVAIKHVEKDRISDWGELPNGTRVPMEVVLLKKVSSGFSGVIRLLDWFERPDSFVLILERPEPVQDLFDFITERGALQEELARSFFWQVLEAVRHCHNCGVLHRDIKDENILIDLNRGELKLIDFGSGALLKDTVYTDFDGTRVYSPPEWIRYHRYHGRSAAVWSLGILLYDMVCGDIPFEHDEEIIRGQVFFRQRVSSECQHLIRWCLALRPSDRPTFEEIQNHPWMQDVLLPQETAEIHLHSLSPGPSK
Sequence of CK2 holoenzyme (CK2 α2β2) (P68400 whole entry): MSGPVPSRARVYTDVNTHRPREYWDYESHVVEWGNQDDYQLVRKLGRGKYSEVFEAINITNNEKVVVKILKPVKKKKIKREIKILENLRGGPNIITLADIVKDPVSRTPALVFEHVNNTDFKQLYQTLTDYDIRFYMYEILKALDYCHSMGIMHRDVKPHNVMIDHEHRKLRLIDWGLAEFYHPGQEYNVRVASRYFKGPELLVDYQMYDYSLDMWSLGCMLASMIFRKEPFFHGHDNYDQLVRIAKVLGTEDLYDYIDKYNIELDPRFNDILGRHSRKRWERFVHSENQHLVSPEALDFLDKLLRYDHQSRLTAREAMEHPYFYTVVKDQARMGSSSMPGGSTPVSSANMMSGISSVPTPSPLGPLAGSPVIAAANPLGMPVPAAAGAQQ
Sequence of CK2 holoenzyme (CK2 α2β2) (P67870 whole entry partner): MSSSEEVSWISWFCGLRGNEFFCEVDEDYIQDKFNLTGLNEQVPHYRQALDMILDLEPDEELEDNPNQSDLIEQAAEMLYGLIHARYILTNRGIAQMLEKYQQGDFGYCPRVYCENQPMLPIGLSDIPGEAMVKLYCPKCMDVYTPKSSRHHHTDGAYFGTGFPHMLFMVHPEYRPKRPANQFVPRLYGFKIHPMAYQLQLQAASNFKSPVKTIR
Sequence of human CK2 catalytic subunit (CK2α) (P68400 whole entry): as the sequence (P68400 whole entry) above

remaining activity at 5 µM ([1]; 5 µM compound) | remaining activity at 10 µM ([1]; 10 µM compound) | remaining activity at 5 µM ([2]; 5 µM compound) | remaining activity at 10 µM ([2]; 10 µM compound) | remaining activity at 5 µM (PIM1; 5 µM compound) | remaining activity at 10 µM (PIM1; 10 µM compound) | EC50 (MCF-7 cells [3]; MCF7, 24 h) | EC50 (MCF-7 cells [3]; MCF7, 48 h) | EC50 (MCF-7 cells [3]; MCF7, 72 h) | EC50 (MDA-MB-231 cells [4]; 24 h) | EC50 (MDA-MB-231 cells [4]; 48 h) | EC50 (MDA-MB-231 cells [4]; 72 h) | melting point | Structure (SMILES) | Ki (PIM1) | cells in G1 (MCF-7 cells [6]) | cells in G2M (MCF-7 cells [6]) | cells in S (MCF-7 cells [6]) | other results
81.5 ± 8% | 68.4 ± 9.8% | 75.6 ± 5.9% | 49.6 ± 0.8% | 38.8 ± 3.1% | 19 ± 0.1% | 20.2 ± 1.74 µM | 18.1 ± 0.52 µM | 16.5 ± 1.13 µM | 52.2 ± 11.7 µM | 20.5 ± 1.97 µM | 16.9 ± 4.07 µM | 81 to 82 °C | CCCC(=O)OCCCn1c(C)nc2c(Br)c(Br)c(Br)c(Br)c21 [Compound 6a, 3-(4,5,6,7-Tetrabromo-2-methyl-1H-benzimidazol-1-yl)propyl butanoate] | 1.94 ± 0.16 µM | 56.3% | 18.5% | 25.2% | relative level of p-Ser129 Akt1 ([5]; MCF-7, 24 h treatment, compound at its 72-h EC50, relative to untreated control): 0.82; relative level of p-Ser129 Akt1 [5, 11]: 0.30; relative level of p-Ser529 p65 [5, 11]: 0.19
 |  |  |  |  |  |  |  |  |  |  |  |  | CC(=O)OCC(CCn1cnc2cnc(N)nc21)COC(C)=O [famciclovir] |  |  |  |  | bioavailability relative to parent penciclovir [8]: 15 fold
89.9 ± 5.2% | 84.3 ± 10.4% | 90.2 ± 4.7% | 80.8 ± 1.9% | 95.2 ± 9.4% | 79.8 ± 8.6% | 25.6 ± 12.3 µM | 20.5 ± 2.92 µM | 14.8 ± 2.14 µM | 61.3 ± 2.23 µM | 29.8 ± 9.85 µM | 21.3 ± 2.24 µM | 61 to 65 °C | CCCCCCCC(=O)OCCCn1c(C)nc2c(Br)c(Br)c(Br)c(Br)c21 [Compound 6c, 3-(4,5,6,7-Tetrabromo-2-methyl-1H-benzimidazol-1-yl)propyl octanoate] |  | 58.9% | 13.4% | 27.7% | relative level of p-Ser529 p65 [9]: 0.32; relative level of c-PARP1 (MDA-MB-231 cells [10]): 7.14

Structure (SMILES) | remaining activity at 5 µM ([1]; 5 µM compound) | remaining activity at 10 µM ([1]; 10 µM compound) | remaining activity at 5 µM ([2]; 5 µM compound) | remaining activity at 10 µM ([2]; 10 µM compound) | remaining activity at 5 µM (PIM1; 5 µM compound) | remaining activity at 10 µM (PIM1; 10 µM compound) | EC50 (MCF-7 cells [3]; MCF7, 24 h) | EC50 (MCF-7 cells [3]; MCF7, 48 h) | EC50 (MCF-7 cells [3]; MCF7, 72 h) | EC50 (MDA-MB-231 cells [4]; 24 h) | EC50 (MDA-MB-231 cells [4]; 48 h) | EC50 (MDA-MB-231 cells [4]; 72 h) | melting point | Ki (PIM1) | cells in G1 (MCF-7 cells [6]) | cells in G2M (MCF-7 cells [6]) | cells in S (MCF-7 cells [6]) | other results
Brc1c(Br)c(Br)c2[nH]cnc2c1Br [Compound 1, 4,5,6,7-tetrabromo-1H-benzimidazole, reference compound] |  |  |  |  |  |  | 20.8 ± 1.49 µM | 18.8 ± 1.6 µM | 16.9 ± 1.36 µM | 51.9 ± 14.4 µM | 25.1 ± 2.04 µM | 24.9 ± 0.25 µM |  | 0.27 µM | 57.7% | 17.2% | 25.1% | remaining activity at 5 µM [1]: 19.3 ± 0.2%; remaining activity at 10 µM [1]: 12.4 ± 0.1%; remaining activity at 5 µM [2]: 9.6 ± 2.6%; remaining activity at 10 µM [2]: 5 ± 1.2%; remaining activity at 5 µM (PIM1): 11.2 ± 0.2%; remaining activity at 10 µM (PIM1): 5.7 ± 0.5%; necrotic cells (of total cells) (MCF-7 cells [7]): 25%
